Assay results published in patent US9328099B2, “Cyanomethylpyrazole carboxamides as janus kinase inhibitors” (Merck Sharp & Dohme Corp., priority 2011, dated 2016).

Legend:
[1] = molecular target: JAK1 (Homo sapiens (Human), UniProt P23458); assay: Jak Biochemical HTRF Assay, JAK1; details: HTRF biochemical assay, GST-tagged catalytic domain; top concentration tested […]; read-out: JAK1 IC50
Excerpt: (§1) Jak Biochemical HTRF Assay Protocol
(§2) Subsequent reagent additions employed an Agilent Bravo.

[2] = molecular target: JAK2 (Homo sapiens (Human), UniProt O60674); assay: Jak Biochemical HTRF Assay, JAK2; details: HTRF biochemical assay, GST-tagged catalytic domain; top concentration tested […]
Excerpt: as §1, §2

JAK2, sequence (O60674 849-1124): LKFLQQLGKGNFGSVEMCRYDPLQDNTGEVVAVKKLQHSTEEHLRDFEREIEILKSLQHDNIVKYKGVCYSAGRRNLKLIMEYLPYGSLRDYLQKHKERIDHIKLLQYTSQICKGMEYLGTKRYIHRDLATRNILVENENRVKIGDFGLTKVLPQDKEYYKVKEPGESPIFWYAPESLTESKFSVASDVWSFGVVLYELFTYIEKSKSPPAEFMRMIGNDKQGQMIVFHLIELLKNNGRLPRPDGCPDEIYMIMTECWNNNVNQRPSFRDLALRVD
JAK1, sequence (P23458 875-1153): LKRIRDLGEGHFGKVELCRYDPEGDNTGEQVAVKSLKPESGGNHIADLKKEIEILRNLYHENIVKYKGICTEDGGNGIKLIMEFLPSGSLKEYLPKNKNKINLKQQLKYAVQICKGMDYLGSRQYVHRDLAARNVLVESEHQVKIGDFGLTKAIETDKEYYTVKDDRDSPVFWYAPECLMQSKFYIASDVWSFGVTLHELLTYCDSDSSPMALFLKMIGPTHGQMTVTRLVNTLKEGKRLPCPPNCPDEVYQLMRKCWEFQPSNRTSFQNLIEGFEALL

Row | SMILES | IC50 [1] | IC50 [2]
1 | N#CCC1(n2cc(C(N)=O)c(Nc3ccccc3)n2)CN(C(=O)OCCN2CCOCC2)C1 [Example 30-55, 2-morpholin-4-ylethyl 3-[4-carbamoyl-3-(phenylamino)-1H-pyrazol-1-yl]-3-(cyanomethyl)azetidine-1-carboxylate] | 74 nM | 491 nM
2 | N#CCC1(n2cc(C(N)=O)c(Nc3ccccc3)n2)CN(C(=O)OC2CCCCC2)C1 [Example 30-57, cyclohexyl 3-[4-carbamoyl-3-(phenylamino)-1H-pyrazol-1-yl]-3-(cyanomethyl)azetidine-1-carboxylate] | 14 nM | 466 nM
3 | COCCOC(=O)N1CC(CC#N)(n2cc(C(N)=O)c(Nc3ccccc3)n2)C1 [Example 30-59, 2-methoxyethyl 3-[4-carbamoyl-3-(phenylamino)-1H-pyrazol-1-yl]-3-(cyanomethyl)azetidine-1-carboxylate] | 15 nM | 336 nM
4 | CCOC(=O)COC(=O)N1CC(CC#N)(n2cc(C(N)=O)c(Nc3ccccc3)n2)C1 [Example 30-60, 2-ethoxy-2-oxoethyl 3-[4-carbamoyl-3-(phenylamino)-1H-pyrazol-1-yl]-3-(cyanomethyl)azetidine-1-carboxylate] | 39 nM | 484 nM
5 | COCCCOC(=O)N1CC(CC#N)(n2cc(C(N)=O)c(Nc3ccccc3)n2)C1 [Example 30-61, 3-methoxypropyl 3-[4-carbamoyl-3-(phenylamino)-1H-pyrazol-1-yl]-3-(cyanomethyl)azetidine-1-carboxylate] | 37 nM | 603 nM
6 | N#CCC1(n2cc(C(N)=O)c(Nc3ccccc3)n2)CN(C(=O)OC2CCOC2)C1 (centres unmarked) [Example 30-62, tetrahydrofuran-3-yl 3-[4-carbamoyl-3-(phenylamino)-1H-pyrazol-1-yl]-3-(cyanomethyl)azetidine-1-carboxylate] | 5 nM | 102 nM
7 | N#CCC1(n2cc(C(N)=O)c(Nc3ccccc3)n2)CN(C(=O)OCCN2CCCC2=O)C1 [Example 30-64, 2-(2-oxopyrrolidin-1-yl)ethyl 3-[4-carbamoyl-3-(phenylamino)-1H-pyrazol-1-yl]-3-(cyanomethyl)azetidine-1-carboxylate] | 188 nM | 1480 nM
8 | N#CCC1(n2cc(C(N)=O)c(Nc3ccccc3)n2)CN(C(=O)OCc2cccnc2)C1 [Example 30-65, pyridin-3-ylmethyl 3-[4-carbamoyl-3-(phenylamino)-1H-pyrazol-1-yl]-3-(cyanomethyl)azetidine-1-carboxylate] | 12 nM | 271 nM
9 | N#CCC1(n2cc(C(N)=O)c(Nc3ccccc3)n2)CN(C(=O)OCc2ccncc2)C1 [Example 30-66, pyridin-4-ylmethyl 3-[4-carbamoyl-3-(phenylamino)-1H-pyrazol-1-yl]-3-(cyanomethyl)azetidine-1-carboxylate] | 19 nM | 353 nM
10 | N#CCC1(n2cc(C(N)=O)c(Nc3ccccc3)n2)CN(C(=O)OCCc2ccccn2)C1 [Example 30-67, 2-pyridin-2-ylethyl 3-[4-carbamoyl-3-(phenylamino)-1H-pyrazol-1-yl]-3-(cyanomethyl)azetidine-1-carboxylate] | 108 nM | 849 nM
11 | N#CCC1(n2cc(C(N)=O)c(Nc3ccccc3)n2)CN(C(=O)OCCCc2cccnc2)C1 [Example 30-68, 3-pyridin-3-ylpropyl 3-[4-carbamoyl-3-(phenylamino)-1H-pyrazol-1-yl]-3-(cyanomethyl)azetidine-1-carboxylate] | 45 nM | 445 nM
12 | COc1ccccc1COC(=O)N1CC(CC#N)(n2cc(C(N)=O)c(Nc3ccccc3)n2)C1 [Example 30-69, 2-methoxybenzyl 3-[4-carbamoyl-3-(phenylamino)-1H-pyrazol-1-yl]-3-(cyanomethyl)azetidine-1-carboxylate] | 31 nM | 671 nM
13 | COc1cccc(COC(=O)N2CC(CC#N)(n3cc(C(N)=O)c(Nc4ccccc4)n3)C2)c1 [Example 30-70, 3-methoxybenzyl 3-[4-carbarnoyl-3-(phenylamino)-1H-pyrazol-1-yl]-3-(cyanomethyl)azetidine-1-carboxylate] | 21 nM | 423 nM
